Measurements reported in patent publication US20250326744A1, “PIPERAZINE DERIVATIVE OR SALT THEREOF, AND PHARMACEUTICAL COMPOSITION” (priority 2022, published 2025).
Structures can show the parent of a compound that is named as a salt.

Key:
mexB (PA) strain = test: Combinational effect with antibacterial agent against Pseudomonas aeruginosa (Test Examples 2 and 4): mexB (PA) strain with LVFX, TC or AZT at 1/4 MIC, EC99; format: cell-based; conditions: for EC99, mexB (PA), AZT / EC99, mexB (PA), LVFX / EC99, mexB (PA), TC: Table 52, Test Example 2, 16 to 20 hours culture, OD595; for EC99, mexB (PA), AZT / EC99, combinational effect with AZT, mexB (PA): combined with AZT at 1/4 MIC; for EC99, mexB (PA), LVFX / EC99, combinational effect with LVFX, mexB (PA): combined with LVFX at 1/4 MIC; for EC99, mexB (PA), TC / EC99, combinational effect with TC, mexB (PA): combined with TC at 1/4 MIC; for EC99, combinational effect with AZT, mexB (PA) / EC99, combinational effect with LVFX, mexB (PA) / EC99, combinational effect with TC, mexB (PA): mexB (PA) strain, Test Example 4
Summary of the method: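 P. aeruginosa mexB (PA) strain, lacking MexCD-OprJ, MexEF-OprN and MexXY and overexpressing MexAB-OprM, grown 16–20 h in CAMHB (10^4–5 CFU/well) with LVFX, TC or AZT at ¼ MIC plus test compound at 0–800 μM. Growth read as OD595; EC99 is the lowest compound concentration giving ≥99% growth inhibition.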

S-3769 strain = test: Combinational effect with antibacterial agent against Pseudomonas aeruginosa (Test Examples 2 and 4): S-3769 strain with AMK or GM at 1/4 MIC, EC99; format: cell-based; conditions: for EC99, S-3769 strain, AMK / EC99, S-3769 strain, GM: Table 52, Test Example 2, 16 to 20 hours culture, OD595; for EC99, S-3769 strain, AMK / EC99, combinational effect with AMK, S-3769 strain: combined with AMK at 1/4 MIC; for EC99, S-3769 strain, GM / EC99, combinational effect with GM, S-3769 strain: combined with GM at 1/4 MIC; for EC99, combinational effect with AMK, S-3769 strain / EC99, combinational effect with GM, S-3769 strain: Test Example 4
Summary of the method: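 P. aeruginosa S-3769 (clinical isolate, MexY overexpressed) grown 16–20 h in CAMHB, 10^4 to 5 CFU/well, with AMK or GM at ¼ MIC plus test compound 0–800 μM. Growth read as OD595; EC99 is the lowest compound concentration giving ≥99% growth inhibition.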

| Structure (SMILES) | EC99, mexB (PA), AZT (mexB (PA) strain) | EC99, mexB (PA), LVFX (mexB (PA) strain) | EC99, mexB (PA), TC (mexB (PA) strain) | EC99, S-3769 strain, AMK (S-3769 strain) | EC99, S-3769 strain, GM (S-3769 strain) | EC99, combinational effect with AZT, mexB (PA) (mexB (PA) strain) | EC99, combinational effect with LVFX, mexB (PA) (mexB (PA) strain) | EC99, combinational effect with TC, mexB (PA) (mexB (PA) strain) | EC99, combinational effect with AMK, S-3769 strain (S-3769 strain) | EC99, combinational effect with GM, S-3769 strain (S-3769 strain) |
| --- | --- | --- | --- | --- | --- | --- | --- | --- | --- | --- |
| CCOc1cccc(F)c1CN1CCN(C(=O)[C@H](N)C2CCN(CCc3cc(Cl)ccc3-c3ccc(F)cc3O)CC2)CC1 [Example 108, Hydrochloride of (R)-2-amino-2-(1-(2-(4-chloro-4′-fluoro-2′-hydroxy-[1,1′-biphenyl]-2-yl)ethyl)piperidin-4-yl)-1-(4-(2-ethoxy-6-fluorobenzyl)piperazin-1-yl)ethan-1-one] | B (25 μM<EC99≤100 μM) | B (25 μM<EC99≤100 μM) | A (12.5 μM<EC99≤25 μM) | S (EC99≤12.5 μM) | A (12.5 μM<EC99≤25 μM) |  |  |  |  |  |
| CCOc1cccc(F)c1CN1CCN(C(=O)[C@H](N)C2CCN(CCc3coc4ccccc34)CC2)CC1 [Example 152, Hydrobromide of (R)-2-amino-2-(1-(2-(benzofuran-3-yl)ethyl)piperidin-4-yl)-1-(4-(2-ethoxy-6-fluorobenzyl)piperazin-1-yl) ethan-1-one] | C (100 μM<EC99) | C (100 μM<EC99) | C (100 μM<EC99) | S (EC99≤12.5 μM) | S (EC99≤12.5 μM) |  |  |  |  |  |
| CCOc1cccc(F)c1CN1CCN(C(=O)[C@H](N)C2CCN(CCc3cc(Cl)ccc3C3=CCNCC3)CC2)CC1 [Example 71, (R)-2-amino-2-(1-(5-chloro-2-(1,2,3,6-tetrahydropyridin-4-yl)phenethyl)piperidin-4-yl)-1-(4-(2-ethoxy-6-fluorobenzyl)piperazin-1-yl)ethan-1-one] | C (100 μM<EC99) | B (25 μM<EC99≤100 μM) | S (EC99≤12.5 μM) | S (EC99≤12.5 μM) | S (EC99≤12.5 μM) |  |  |  |  |  |
| COc1cccc(NC(=O)C(C)(C)C)c1CN1CCN(C(=O)[C@H](N)C2CCN(CCc3cc(Cl)ccc3-c3ccccc3)CC2)CC1 [Example 527, Hydrobromide of (R)-N-(2-((4-(2-amino-2-(1-(2-(4-chloro-[1,1-biphenyl]-2-yl)ethyl)piperidin-4-yl)acetyl)piperazin-1-yl)methyl)-3-methoxyphenyl)pivalamide] |  |  |  |  |  | C (100 μM<EC99) | C (100 μM<EC99) | B (25 μM<EC99≤100 μM) | S (EC99≤12.5 μM) | S (EC99≤12.5 μM) |
| CCOc1cccc(F)c1CN1CCN(C(=O)[C@H](N)C2CCN(CCc3cc(Cl)ccc3-c3cc(O)cc(F)c3)CC2)CC1 [Example 583, Hydrochloride of (R)-2-amino-2-(1-(2-(4-chloro-3′-fluoro-5′-hydroxy-[1,1-biphenyl]-2-yl)ethyl)piperidin-4-yl)-1-(4-(2-ethoxy-6-fluorobenzyl)piperazin-1-yl)ethan-1-one] |  |  |  |  |  | A (12.5 μM<EC99≤25 μM) | S (EC99≤12.5 μM) | A (12.5 μM<EC99≤25 μM) | S (EC99≤12.5 μM) | S (EC99≤12.5 μM) |
| CCOc1cccc(F)c1CN1CCN(C(=O)[C@H](N)C2CCN(CCc3cc(Cl)ccc3-c3ccccc3OC)CC2)CC1 [Example 76, Hydrobromide of (R.)-2-amino-2-(1-(2-(4-chloro-2′-methoxy-[1,1′-biphenyl]-2-yl)ethyl)piperidin-4-yl)-1-(4-(2-ethoxy-6-fluorobenzyl)piperazin-1-yl)ethan-1-one] | A (12.5 μM<EC99≤25 μM) | B (25 μM<EC99≤100 μM) | B (25 μM<EC99≤100 μM) | A (12.5 μM<EC99≤25 μM) | A (12.5 μM<EC99≤25 μM) |  |  |  |  |  |
| CCOc1cccc(F)c1CN1CCN(C(=O)[C@H](N)C2CCN(CCc3cc(O)ccc3-c3ccccc3)CC2)CC1 [Example 596, Hydrochloride of (R)-2-amino-1-(4-(2-ethoxy-6-fluorobenzyl)piperazin-1-yl)-2-(1-(2-(4-hydroxy-[1,1′-biphenyl]-2-yl)ethyl)piperidin-4-yl)ethan-1-one] |  |  |  |  |  | C (100 μM<EC99) | B (25 μM<EC99≤100 μM) | B (25 μM<EC99≤100 μM) | S (EC99≤12.5 μM) | A (12.5 μM<EC99≤25 μM) |
| CCOc1cccc(F)c1CN1CCN(C(=O)[C@H](N)C2CCN(CCc3cc(Cl)ccc3-c3ccccc3F)CC2)CC1 [Example 139, hydrochloride of (R)-2-amino-2-(1-(2-(4-chloro-2′-fluoro-[1,1′-biphenyl]-2-yl)ethyl)piperidin-4-yl)-1-(4-(2-ethoxy-6-fluorobenzyl)piperazin-1-yl)ethan-1-one] | A (12.5 μM<EC99≤25 μM) | A (12.5 μM<EC99≤25 μM) | A (12.5 μM<EC99≤25 μM) | S (EC99≤12.5 μM) | S (EC99≤12.5 μM) |  |  |  |  |  |
| CCSc1cc(F)ccc1CN1CCN(C(=O)[C@H](N)C2CCN(CCc3cc(Cl)ccc3-c3cccc(O)c3Cl)CC2)CC1 [Example 616, (R)-2-amino-2-(1-(2-(2′,4-dichloro-3′-hydroxy-[1,1′-biphenyl]-2-yl)ethyl)piperidin-4-yl)-1-(4-(2-(ethylthio)-4-fluorobenzyl)piperazin-1-yl)ethan-1-one] |  |  |  |  |  | S (EC99≤12.5 μM) | S (EC99≤12.5 μM) | S (EC99≤12.5 μM) | S (EC99≤12.5 μM) | S (EC99≤12.5 μM) |
| N[C@@H](C(=O)N1CCN(Cc2cccc3c2CCCO3)CC1)C1CCN(CCc2cc(Cl)ccc2-c2ccccc2)CC1 [Example 515, Hydrobromide of (R)-2-amino-2-(1-(2-(4-chloro-[1,1-biphenyl]-2-yl)ethyl)piperidin-4-yl)-1-(4-(chroman-5-ylmethyl)piperazin-1-yl)ethan-1-one] |  |  |  |  |  | B (25 μM<EC99≤100 μM) | B (25 μM<EC99≤100 μM) | A (12.5 μM<EC99≤25 μM) | B (25 μM<EC99≤100 μM) | B (25 μM<EC99≤100 μM) |
